For 14 compounds, MIC results are on record in DBAASP.

SMILES strings stand for the structures. Values after ≈ are worked out from the molar mass of the structure shown.

Common to all, as to experiment: ≥ marks a high value that may be exact or a test limit, other limits are often not marked, values filed in µg/mL are converted to µM
Assay [1] concerns Staphylococcus aureus ATCC 6538.
The test system of assay [2] is Pseudomonas aeruginosa ATCC 9027.
The test system of assay [3] is Staphylococcus epidermidis KCTC 1917.
Assay [4] deals with Salmonella typhimurium KCTC 1926.
The subject of assay [5] is Pseudomonas aeruginosa KCTC 1637.
The subject of assay [6] is Escherichia coli KCTC 1682.
For assay [7], the system named is Staphylococcus aureus KCTC 1621.
In assay [8] the test system is Bacillus subtilis KCTC 3068.
The test system of assay [9] is Candida albicans.
For assay [10], the system named is Escherichia coli.
In assay [11] the test system is Staphylococcus aureus.

What is called MIC is the least concentration at which growth counts as inhibited. Low readings indicate inhibition by little substance, high ones a need for much substance. Take `CC(C)C[C@H](NC(=O)[C@H](C)NC(=O)[C@H](CCCCN)NC(=O)[C@H](CC(C)C)NC(=O)[C@H](C)NC(=O)[C@H](CCCCN)NC(=O)[C@H](CC(C)C)NC(=O)[C@H](CC(C)C)NC(=O)[C@H](C)NC(=O)[C@H](CCCCN)NC(=O)[C@H](CC(C)C)NC(=O)[C@H](C)NC(=O)[C@H](CCCCN)NC(=O)[C@H](C)NC(=O)[C@@H](N)Cc1ccccc1)C(N)=O` [FAKALKALLKALKAL]: the MIC was 3.13 µM (≈ 5 µg/mL) in assay [1] and above 125 µM in assay [2].

Consider `CC(C)C[C@H](NC(=O)[C@H](CC(C)C)NC(=O)[C@H](CCCCN)NC(=O)[C@H](CCCCN)NC(=O)[C@H](C)NC(=O)[C@H](CC(C)C)NC(=O)[C@H](CCCCN)NC(=O)[C@H](C)NC(=O)[C@@H](N)Cc1ccccc1)C(N)=O` [FAKLAKKLL], for which the MIC in [1] was 194 µM (≈ 200 µg/mL); in assay [2] it was 97 µM (≈ 99.9 µg/mL).

On to `CC(C)C[C@H](NC(=O)[C@H](C)NC(=O)[C@H](Cc1ccccc1)NC(=O)[C@H](CCCCN)NC(=O)[C@H](CCCCN)NC(=O)[C@H](CC(C)C)NC(=O)[C@H](C)NC(=O)[C@H](CCCCN)NC(=O)[C@H](C)NC(=O)[C@H](CC(C)C)NC(=O)[C@H](CC(C)C)NC(=O)[C@H](CCCCN)NC(=O)[C@H](C)NC(=O)[C@@H](N)Cc1ccccc1)C(N)=O` [FAKLLAKALKKFAL], for which the MIC came to 32 µM (≈ 50 µg/mL) in assay [1] and 16 µM (≈ 25 µg/mL) in [2].

In the case of `CC(C)C[C@H](NC(=O)[C@H](CCCCN)NC(=O)[C@H](CC(C)C)NC(=O)[C@H](CCCCN)NC(=O)[C@H](C)NC(=O)[C@H](CC(C)C)NC(=O)[C@H](CCCCN)NC(=O)[C@H](C)NC(=O)[C@H](CC(C)C)NC(=O)[C@H](CC(C)C)NC(=O)[C@H](CCCCN)NC(=O)[C@H](C)NC(=O)[C@@H](N)Cc1ccccc1)C(N)=O` [FAKLLAKLAKLKL], the values for the minimum inhibitory concentration (MIC) in assay [1] and in assay [2] were 3.43 µM (≈ 5 µg/mL) and 34.3 µM (≈ 50 µg/mL), respectively.

`CC(C)C[C@H](NC(=O)[C@H](C)NC(=O)[C@H](Cc1c[nH]c2ccccc12)NC(=O)[C@H](CCCCN)NC(=O)[C@H](CC(N)=O)NC(=O)[C@H](Cc1c[nH]c2ccccc12)NC(=O)[C@H](CCCCN)NC(=O)[C@H](CCCCN)NC(=O)[C@H](CCCN=C(N)N)NC(=O)[C@@H](N)Cc1ccccc1)C(=O)N[C@@H](CO)C(=O)N[C@@H](CCCN=C(N)N)C(N)=O` [FRKKWNKWALSR]: the MIC in [3] was found to be 8 µM (≈ 13 µg/mL); in [4], 4 µM (≈ 6.48 µg/mL); in assay [5] it was 16 µM (≈ 25.9 µg/mL); in [6], 4 µM (≈ 6.48 µg/mL); in assay [7] it was 16 µM (≈ 25.9 µg/mL); in [8], 8 µM (≈ 13 µg/mL).

For the compound `CC[C@H](C)[C@H](N)C(=O)NCC(=O)N[C@@H](CCCCN)C(=O)N[C@@H](CCCCN)C(=O)N[C@@H](Cc1ccccc1)C(=O)N[C@@H](CCCCN)C(=O)N[C@@H](CCCN=C(N)N)C(=O)N[C@H](C(=O)N[C@H](C(=O)N[C@@H](CCCCN)C(=O)N[C@@H](CCCN=C(N)N)C(=O)N[C@H](C(=O)N[C@@H](CCCCN)C(=O)N[C@@H](CCCCN)C(=O)N[C@@H](Cc1c[nH]c2ccccc12)C(=O)N[C@@H](CC(C)C)C(=O)N[C@@H](CCCN=C(N)N)C(=O)N[C@@H](CCCCN)C(=O)N[C@@H](CC(C)C)C(=O)O)[C@@H](C)CC)C(C)C)[C@@H](C)CC` [IGKKFKRIVKRIKKWLRKL], the minimal inhibitory concentration (MIC) in assay [3] amounted to 4 µM (≈ 9.76 µg/mL); in assay [4], 2 µM (≈ 4.88 µg/mL); in assay [5], 4 µM (≈ 9.76 µg/mL); in assay [6], 4 µM (≈ 9.76 µg/mL); in [7] it was 2 µM (≈ 4.88 µg/mL); in assay [8], 2 µM (≈ 4.88 µg/mL).

Consider `CC[C@H](C)[C@H](N)C(=O)N[C@@H](CC(C)C)C(=O)NCC(=O)N[C@@H](CCCCN)C(=O)N[C@H](C(=O)N[C@@H](C)C(=O)N[C@@H](CCC(=O)O)C(=O)NCC(=O)N[C@H](C(=O)N[C@@H](CCCCN)C(=O)N[C@@H](CO)C(=O)N[C@@H](CC(C)C)C(=O)N[C@@H](Cc1ccccc1)C(N)=O)[C@@H](C)CC)[C@@H](C)CC` [ILGKIAEGIKSLF], for which the MIC in assay [3] is at least 64 µM; in assay [4], at least 64 µM; in assay [5], at least 32 µM; in assay [6], at least 64 µM; in assay [7], at least 64 µM.

With `CC[C@H](C)[C@H](N)C(=O)N[C@@H](CC(C)C)C(=O)N[C@@H](CCCCN)C(=O)N[C@@H](Cc1c[nH]c2ccccc12)C(=O)N[C@@H](CCCCN)C(=O)N[C@@H](Cc1c[nH]c2ccccc12)C(=O)N[C@@H](CCCCN)C(=O)N[C@@H](Cc1c[nH]c2ccccc12)C(=O)N[C@@H](Cc1c[nH]c2ccccc12)C(=O)N[C@@H](CCCCN)C(=O)N[C@@H](Cc1c[nH]c2ccccc12)C(=O)N[C@@H](CCCN=C(N)N)C(=O)N[C@@H](CCCN=C(N)N)C(N)=O` [ILKWKWKWWKWRR], the minimum inhibitory concentration (MIC) stood at 5 µM (≈ 10 µg/mL) in [3]; 2.5 µM (≈ 5 µg/mL) in [4]; 5 µM (≈ 10 µg/mL) in assay [5]; 5 µM (≈ 10 µg/mL) in assay [6]; 2.5 µM (≈ 5 µg/mL) in [7]; 2.5 µM (≈ 5 µg/mL) in assay [8].

As to `CC[C@H](C)[C@H](N)C(=O)N[C@@H](CC(C)C)C(=O)N1CCC[C@H]1C(=O)N[C@@H](Cc1c[nH]c2ccccc12)C(=O)N[C@@H](CCCCN)C(=O)N[C@@H](CCCCN)C(=O)N1CCC[C@H]1C(=O)N[C@@H](CCCCN)C(=O)N[C@@H](CCCCN)C(=O)N1CCC[C@H]1C(=O)N[C@@H](CCCCN)C(=O)N[C@@H](CCCN=C(N)N)C(=O)N[C@@H](CCCN=C(N)N)C(N)=O` [ILPWKKPKKPKRR], the MIC in assay [3] amounted to 2.98 µM (≈ 5 µg/mL); in assay [4], 2.98 µM (≈ 5 µg/mL); in [5], 5.97 µM (≈ 9.99 µg/mL); in assay [6] it was 5.97 µM (≈ 9.99 µg/mL); in assay [7], 5.97 µM (≈ 9.99 µg/mL); in assay [8], 5.97 µM (≈ 9.99 µg/mL).

`CC[C@H](C)[C@H](N)C(=O)N[C@@H](CC(C)C)C(=O)N1CCC[C@H]1C(=O)N[C@@H](Cc1c[nH]c2ccccc12)C(=O)N[C@@H](CCCCN)C(=O)N[C@@H](Cc1c[nH]c2ccccc12)C(=O)N1CCC[C@H]1C(=O)N[C@@H](CCCCN)C(=O)N[C@@H](Cc1c[nH]c2ccccc12)C(=O)N1CCC[C@H]1C(=O)N[C@@H](Cc1c[nH]c2ccccc12)C(=O)N[C@@H](CCCN=C(N)N)C(=O)N[C@@H](CCCN=C(N)N)C(N)=O` [ILPWKWPKWPWRR]: the MIC is 2.7 µM (≈ 5 µg/mL) in assay [3]; 2.7 µM (≈ 5 µg/mL) in assay [4]; 10.8 µM (≈ 20 µg/mL) in assay [5]; 2.7 µM (≈ 5 µg/mL) in assay [6]; 2.7 µM (≈ 5 µg/mL) in assay [7]; 5.41 µM (≈ 9.99 µg/mL) in [8].

Turning to `C[C@@H](O)[C@H](NC(=O)[C@H](CCCCN)NC(=O)[C@H](Cc1c[nH]c2ccccc12)NC(=O)[C@H](Cc1c[nH]c2ccccc12)NC(=O)[C@@H](NC(=O)[C@H](CCCCN)NC(=O)[C@@H](N)CCCCN)[C@@H](C)O)C(=O)N[C@@H](Cc1c[nH]c2ccccc12)C(=O)N[C@@H](Cc1c[nH]c2ccccc12)C(=O)N[C@H](C(=O)N[C@@H](CCCCN)C(=O)N[C@@H](Cc1c[nH]c2ccccc12)C(=O)N[C@@H](CO)C(=O)N[C@@H](CCC(N)=O)C(=O)N1CCC[C@H]1C(=O)O)[C@@H](C)O` [KKTWWKTWWTKWSQP], the MIC in assay [3] amounted to 4 µM (≈ 8.31 µg/mL); in assay [4], 4 µM (≈ 8.31 µg/mL); in assay [5], 8 µM (≈ 16.6 µg/mL); in assay [6], 4 µM (≈ 8.31 µg/mL); in assay [7], 4 µM (≈ 8.31 µg/mL); in assay [8], 2 µM (≈ 4.15 µg/mL).

With `CC[C@H](C)[C@H](NC(=O)[C@H](CCCN=C(N)N)NC(=O)[C@H](CCC(N)=O)NC(=O)[C@@H](NC(=O)[C@@H](NC(=O)[C@H](CCCN=C(N)N)NC(=O)[C@@H](N)CCCCN)[C@@H](C)CC)C(C)C)C(=O)N[C@@H](CCCCN)C(=O)N[C@@H](CC(=O)O)C(=O)N[C@@H](Cc1c[nH]c2ccccc12)C(=O)N[C@@H](CC(C)C)C(=O)N[C@@H](CCCN=C(N)N)C(N)=O` [KRIVQRIKDWLR], the MIC in assay [3] came to 1 µM (≈ 1.61 µg/mL); in assay [4] it was 4 µM (≈ 6.44 µg/mL); in [5] it was 8 µM (≈ 12.9 µg/mL); in assay [6], 2 µM (≈ 3.22 µg/mL); in [7] it was 2 µM (≈ 3.22 µg/mL); in [8], 4 µM (≈ 6.44 µg/mL).

In turn, `CC(=O)N[C@@H](CCCCN)C(=O)N[C@@H](Cc1ccc(O)cc1)C(=O)N[C@H](C(=O)NCC(=O)N[C@@H](CCCCN)C(=O)N[C@@H](CS)C(=O)N[C@@H](CCCCN)C(=O)N[C@H](C(=O)N[C@@H](CCCCN)C(=O)N[C@@H](CCCCN)C(=O)N[C@@H](CC(N)=O)C(=O)N[C@@H](CCCCN)C(=O)N[C@@H](CS)C(=O)N[C@@H](CCCCN)C(N)=O)[C@@H](C)O)[C@@H](C)O` [KYTGKCKTKKNKCK] showed an MIC in [9] of 1.3 µM (≈ 2.21 µg/mL).

In the case of `CC[C@H](C)[C@H](NC(=O)[C@H](CCCCN)NC(=O)[C@H](CS)NC(=O)[C@H](C)NC(=O)[C@@H](NC(=O)[C@H](Cc1ccccc1)NC(=O)[C@H](CCCCN)NC(=O)[C@H](CC(C)C)NC(=O)[C@H](CCCCN)NC(=O)[C@@H](NC(=O)[C@H](CCCCN)NC(=O)[C@H](CCCCN)NC(=O)[C@H](CC(C)C)NC(=O)[C@H](CC(N)=O)NC(=O)[C@H](CCCCN)NC(=O)[C@H](CC(C)C)NC(=O)[C@@H](NC(=O)[C@H](CO)NC(=O)[C@H](CC(C)C)NC(=O)[C@H](CCSC)NC(=O)[C@@H](N)CO)C(C)C)C(C)C)C(C)C)C(=O)N[C@@H](CC(N)=O)C(=O)N[C@@H](CCCCN)C(=O)N[C@@H](CCC(N)=O)C(=O)N[C@@H](CS)C(=O)O` [SMLSVLKNLKKVKLKFVACKINKQC], the minimum inhibitory concentration (MIC) in [10] was 200 µM (≈ 573 µg/mL); in assay [11] it was above 200 µM; in assay [9], above 200 µM.
